Activity calls are given as the source filed them.

Test [1] is described as follows: Luminescence Cell-Based/Microorganism Confirmation at Dose of Inhibitors of Trypanosoma cruzi Infection. [Related pubchem assays: 1885, 1968 ]. It is filed as functional.
A short description of test [2]: Trypanosoma cruzi growth suppression in host cells – NIH3T3 host cells, beta-gal luminescence, confirmation (AID 2044).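 Also: intracellular parasites grown in NIH/3T3 mouse fibroblasts as host cells; luminescent beta-galactosidase reporter signal from transgenic T. cruzi replicating inside host cells; inhibitors lower the luminescence signal.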 Type of test: functional, cell-based.
The nature of test [3]: Luminescence Cell-Based Secondary HTS screen to identify cytotoxic compounds of NIH3T3 cells. [Related pubchem assays: 1885, 1968 ]. It is filed as functional.
Test [4] is described as follows: NIH3T3 cell viability loss – ATP luminescence, mouse fibroblasts, counter-screen, dose response (AID 2010).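 Also: cells exposed to compound for about 90 hours before reading.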 It is filed as functional, cell-based. In general terms: Counterscreens check selectivity or assay interference.
The nature of test [5]: T. cruzi infection blockers in NIH3T3 cells – beta-gal luminescence, NIH3T3 host cells, confirmation (AID 2630). Type of test: functional, cell-based. The following applies: Mus musculus.
A short description of test [6]: cells.
Test [7] can be described thus: NIH-3T3 fibroblast cytotoxicity, dose response, cytotoxicity control, cell-based, fluorescence, Alamar Blue, secondary assay (AID 2327).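 Also: NIH-3T3 mouse fibroblasts cultured with fluconazole at 8 µg/mL.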 It is filed as functional. On the technique in general: Resazurin is reduced to fluorescent resorufin, in cell work by metabolically active cells.
Test [8] relates to Streptococcus sp. 'group A'. Kind of test: Streptococcus pyogenes SK(-)GAS viability under kanamycin – luminescence, BacTiterGlo, confirmation, counter-screen for streptokinase expression inhibitor project, dose response (AID 1900). Type of test: functional, organism-based.
Test [9] concerns the target T1, Streptokinase A (Streptococcus pyogenes serotype M1, UniProt P10520).
T1 sequence (P10520 whole entry): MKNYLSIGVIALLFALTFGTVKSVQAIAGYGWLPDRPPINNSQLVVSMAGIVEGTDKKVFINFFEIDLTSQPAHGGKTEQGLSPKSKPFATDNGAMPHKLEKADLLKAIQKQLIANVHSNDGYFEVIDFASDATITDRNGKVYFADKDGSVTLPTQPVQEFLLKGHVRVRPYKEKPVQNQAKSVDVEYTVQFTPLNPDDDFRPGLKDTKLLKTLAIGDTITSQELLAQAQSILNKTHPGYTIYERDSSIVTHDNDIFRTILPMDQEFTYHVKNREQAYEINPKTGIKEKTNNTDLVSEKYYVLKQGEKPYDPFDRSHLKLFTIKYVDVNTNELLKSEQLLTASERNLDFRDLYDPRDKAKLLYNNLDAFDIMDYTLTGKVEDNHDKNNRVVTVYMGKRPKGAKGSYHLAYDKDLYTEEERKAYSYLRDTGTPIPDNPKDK
Kind of test: viability-normalized secreted streptokinase activity reduction – plasminogen activation absorbance, OD405, dose response (AID 1914).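 Also: secreted streptokinase activity via plasminogen activation per viability signal from cell pellet.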 Type of test: functional, Streptococcus pyogenes M1 GAS.

The nature of test [10]: fluconazole-exposed Candida albicans growth modulators – fluorescence, retest, confirmation (AID 2467). It is filed as functional, cell-based.
Test [11] concerns Streptococcus. Nature of the test: GAS UMAA2166 growth inhibition – luminescence, BacTiterGlo, counter-screen for streptokinase expression inhibitor project, dose response (AID 1915).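 Also: potency for reduction of bacterial viability or growth.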 Type of test: functional, organism-based.
Test [12] addresses Intestinal-type alkaline phosphatase (Mus musculus, UniProt P24822). Kind of test: PubChem AID 488875. It is filed as functional.
Test [13] deals with T2, Intestinal-type alkaline phosphatase (Homo sapiens, UniProt P09923). Nature of the test: human intestinal alkaline phosphatase activators, dose response, biochemical, luminescence, uHTS hits (AID 463120). It is filed as functional.
Test [14] addresses T2, Intestinal-type alkaline phosphatase. Nature of the test: activation of human intestinal alkaline phosphatase – biochemical, luminescent, uHTS hits, set 2, dose response (AID 488817).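 Also: potency of activators that raise enzyme activity.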 Type of test: functional.
Test [15] has as its target T3, Alkaline phosphatase, tissue-nonspecific isozyme (Homo sapiens, UniProt P05186).
T3 sequence (P05186 whole entry): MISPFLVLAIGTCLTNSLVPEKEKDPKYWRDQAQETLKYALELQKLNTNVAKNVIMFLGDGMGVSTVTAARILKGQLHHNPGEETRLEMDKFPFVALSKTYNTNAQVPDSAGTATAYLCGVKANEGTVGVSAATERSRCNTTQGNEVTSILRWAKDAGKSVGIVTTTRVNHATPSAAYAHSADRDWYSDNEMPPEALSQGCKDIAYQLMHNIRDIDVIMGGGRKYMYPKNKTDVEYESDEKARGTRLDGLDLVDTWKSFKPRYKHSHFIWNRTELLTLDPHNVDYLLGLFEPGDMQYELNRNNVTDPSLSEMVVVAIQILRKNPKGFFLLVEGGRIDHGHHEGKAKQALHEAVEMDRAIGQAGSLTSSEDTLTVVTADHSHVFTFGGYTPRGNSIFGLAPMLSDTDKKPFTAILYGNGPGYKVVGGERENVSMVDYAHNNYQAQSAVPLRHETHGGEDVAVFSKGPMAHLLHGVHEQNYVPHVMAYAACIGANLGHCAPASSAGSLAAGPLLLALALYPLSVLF
Kind of test: activation of tissue-nonspecific alkaline phosphatase – biochemical, TNAP isozyme, human IAP uHTS hits, selectivity assay for human IAP activator project, dose response (AID 488886).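 Also: potency of compounds raising TNAP activity as a selectivity check on IAP activators.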 It is filed as functional.

A short description of test [16]: microbe, parasite or virus in culture. Type of test: functional. The following applies: Mycobacterium tuberculosis.
The target in test [17] is T4, Serine/threonine-protein phosphatase (Candida dubliniensis (strain CD36 / CBS 7987 / NCPF 3949 / NRRLY-17841) (Yeast), UniProt B9W6M3).
T4 sequence (B9W6M3 whole entry): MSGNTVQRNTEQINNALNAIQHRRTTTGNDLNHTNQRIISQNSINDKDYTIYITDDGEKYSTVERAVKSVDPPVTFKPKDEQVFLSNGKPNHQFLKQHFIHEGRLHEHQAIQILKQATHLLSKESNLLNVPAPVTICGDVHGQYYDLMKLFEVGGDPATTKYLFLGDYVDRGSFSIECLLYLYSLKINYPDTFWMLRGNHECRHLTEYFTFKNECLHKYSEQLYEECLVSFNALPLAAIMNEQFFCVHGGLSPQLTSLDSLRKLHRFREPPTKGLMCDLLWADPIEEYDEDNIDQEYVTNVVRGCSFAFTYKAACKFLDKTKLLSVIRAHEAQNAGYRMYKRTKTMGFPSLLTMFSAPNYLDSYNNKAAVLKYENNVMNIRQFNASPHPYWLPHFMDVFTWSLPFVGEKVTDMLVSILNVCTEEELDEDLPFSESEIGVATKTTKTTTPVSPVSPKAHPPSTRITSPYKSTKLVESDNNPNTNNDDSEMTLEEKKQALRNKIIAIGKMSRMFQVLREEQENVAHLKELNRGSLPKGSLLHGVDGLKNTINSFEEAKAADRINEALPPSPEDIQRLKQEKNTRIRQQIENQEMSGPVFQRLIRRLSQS
Kind of test: blockers of CaCl2-induced CDRE-lacZ signaling – S. cerevisiae, luminescence, secondary, dose response (AID 2388).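 Also: yeast reporter cells carrying a calcineurin-responsive lacZ construct stimulated with calcium chloride; luminescent beta-galactosidase reporter signal in whole cells rather than isolated phosphatase activity; potency for inhibition where a drop in reporter signal means calcineurin blockade.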 Type of test: functional, cell-based.

In test [18] the target is Heat shock protein HSP 90-alpha (Homo sapiens, UniProt P07900). It is filed as functional, organism-based.
Test [19] deals with T4, Serine/threonine-protein phosphatase. Nature of the test: Fluorescence Cell-Based Secondary Assay to Identify Inhibitors of Calcineurin. [Related pubchem assays (depositor defined):AID1979, AID2007]. It is filed as functional.
The subject of test [20] is INS1. Kind of test: INS-1E survival protection against cytokine death – cell-based, luminescence, retest, dose response (AID 449756).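 Also: cell death triggered by IL-1 beta plus TNF-alpha plus IFN-gamma mixture; protective hits raise ATP signal compared with cytokine alone wells.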 Type of test: functional. The note with it: Rattus norvegicus.
Test [21] has as its system Vero. Kind of test: cells. The following applies: Chlorocebus sabaeus. It is filed as functional.
The target of test [22] is ATP-dependent molecular chaperone HSP82 (Candida albicans (strain WO-1) (Yeast), UniProt C4YTQ8). Nature of the test: steroid-induced GRE reporter decrease in yeast – S. cerevisiae, luminescence, Hsp90 inhibitor project, dose response (AID 2400).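 Also: beta-galactosidase luminescence from glucocorticoid response element reporter as proxy for Hsp90 function; inhibitor potency where signal loss means Hsp90 inhibition.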 Type of test: functional, cell-based.
Test [23] has as its target T5, Estrogen receptor (Homo sapiens, UniProt P03372).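 Also: potency for inhibiting coactivator peptide recruitment to the receptor.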
T5 sequence (P03372 whole entry): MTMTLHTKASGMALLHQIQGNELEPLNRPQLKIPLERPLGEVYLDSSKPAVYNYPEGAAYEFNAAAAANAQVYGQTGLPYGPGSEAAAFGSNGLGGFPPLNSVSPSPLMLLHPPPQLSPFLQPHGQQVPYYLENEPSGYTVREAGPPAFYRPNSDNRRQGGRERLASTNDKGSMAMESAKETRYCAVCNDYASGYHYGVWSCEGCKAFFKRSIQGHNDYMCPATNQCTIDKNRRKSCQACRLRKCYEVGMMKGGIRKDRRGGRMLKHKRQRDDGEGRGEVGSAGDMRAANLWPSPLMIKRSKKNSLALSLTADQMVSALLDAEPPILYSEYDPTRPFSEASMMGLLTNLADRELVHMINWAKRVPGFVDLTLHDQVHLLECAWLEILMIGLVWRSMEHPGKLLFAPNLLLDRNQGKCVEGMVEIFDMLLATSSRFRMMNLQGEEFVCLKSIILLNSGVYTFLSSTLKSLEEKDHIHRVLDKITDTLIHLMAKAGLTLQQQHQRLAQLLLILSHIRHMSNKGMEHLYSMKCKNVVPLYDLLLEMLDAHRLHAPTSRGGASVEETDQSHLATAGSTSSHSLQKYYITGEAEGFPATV

For test [24], the target named is Mitogen-activated protein kinase 10 (Homo sapiens, UniProt P53779). Nature of the test: Dose response biochemical screening assay for inhibitors of c-Jun N-Terminal Kinase 3 (JNK3). [Related pubchem assays: 746 ].
Test [25] concerns the target Trypsin (Sus scrofa, UniProt P00761). Kind of test: trypsin protease activity blockade – biochemical, quenched peptide fluorescence, cherry-pick, selectivity assay for Rce1 protease inhibitor project, dose response (AID 488789).
In test [26] the target is T6, CAAX prenyl protease 2 (Saccharomyces cerevisiae S288c, UniProt Q03530).
T6 sequence (Q03530 whole entry): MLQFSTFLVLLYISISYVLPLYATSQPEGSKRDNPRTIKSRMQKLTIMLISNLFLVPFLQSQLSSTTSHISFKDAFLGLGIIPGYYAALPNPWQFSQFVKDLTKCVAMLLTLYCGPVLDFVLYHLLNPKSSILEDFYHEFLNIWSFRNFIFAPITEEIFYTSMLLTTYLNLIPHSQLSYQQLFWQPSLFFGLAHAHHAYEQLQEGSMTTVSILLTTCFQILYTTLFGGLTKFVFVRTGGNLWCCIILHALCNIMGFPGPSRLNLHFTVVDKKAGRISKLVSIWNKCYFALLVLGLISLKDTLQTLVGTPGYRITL
Type of test: biochemical.

The target in test [27] is CAAX prenyl protease 1 (Saccharomyces cerevisiae S288c, UniProt P47154). Kind of test: yeast CAAX protease Ste24 inhibition – biochemical, S. cerevisiae, plate reader, cherry-pick, dose response (AID 488815).
CAAX prenyl protease 1, sequence (P47154 whole entry): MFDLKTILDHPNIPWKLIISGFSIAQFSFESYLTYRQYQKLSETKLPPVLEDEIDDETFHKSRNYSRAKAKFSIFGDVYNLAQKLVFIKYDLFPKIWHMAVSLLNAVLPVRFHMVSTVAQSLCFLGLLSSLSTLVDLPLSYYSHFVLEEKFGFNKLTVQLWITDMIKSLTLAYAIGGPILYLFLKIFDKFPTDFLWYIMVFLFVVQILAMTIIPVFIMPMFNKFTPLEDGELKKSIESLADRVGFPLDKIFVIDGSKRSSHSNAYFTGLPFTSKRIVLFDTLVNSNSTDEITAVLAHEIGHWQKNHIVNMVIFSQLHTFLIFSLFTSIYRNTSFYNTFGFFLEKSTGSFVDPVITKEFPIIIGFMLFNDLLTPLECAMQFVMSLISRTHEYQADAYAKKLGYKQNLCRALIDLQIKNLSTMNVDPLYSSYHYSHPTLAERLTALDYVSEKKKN

T2 sequence (P09923 whole entry): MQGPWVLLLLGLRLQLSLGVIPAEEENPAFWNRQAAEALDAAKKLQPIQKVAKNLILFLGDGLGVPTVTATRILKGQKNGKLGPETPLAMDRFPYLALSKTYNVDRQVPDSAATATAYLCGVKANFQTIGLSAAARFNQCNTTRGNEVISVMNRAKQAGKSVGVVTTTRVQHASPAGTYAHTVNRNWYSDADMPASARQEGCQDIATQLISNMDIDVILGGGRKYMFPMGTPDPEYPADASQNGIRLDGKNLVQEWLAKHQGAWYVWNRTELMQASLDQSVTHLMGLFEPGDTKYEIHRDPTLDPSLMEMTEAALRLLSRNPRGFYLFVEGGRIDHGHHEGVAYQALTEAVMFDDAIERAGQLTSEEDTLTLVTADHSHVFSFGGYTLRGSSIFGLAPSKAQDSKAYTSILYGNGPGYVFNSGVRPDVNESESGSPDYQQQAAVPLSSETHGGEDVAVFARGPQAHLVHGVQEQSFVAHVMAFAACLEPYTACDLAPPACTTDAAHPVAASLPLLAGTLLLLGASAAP
Intestinal-type alkaline phosphatase (Mus musculus, UniProt P24822), sequence (P24822 whole entry): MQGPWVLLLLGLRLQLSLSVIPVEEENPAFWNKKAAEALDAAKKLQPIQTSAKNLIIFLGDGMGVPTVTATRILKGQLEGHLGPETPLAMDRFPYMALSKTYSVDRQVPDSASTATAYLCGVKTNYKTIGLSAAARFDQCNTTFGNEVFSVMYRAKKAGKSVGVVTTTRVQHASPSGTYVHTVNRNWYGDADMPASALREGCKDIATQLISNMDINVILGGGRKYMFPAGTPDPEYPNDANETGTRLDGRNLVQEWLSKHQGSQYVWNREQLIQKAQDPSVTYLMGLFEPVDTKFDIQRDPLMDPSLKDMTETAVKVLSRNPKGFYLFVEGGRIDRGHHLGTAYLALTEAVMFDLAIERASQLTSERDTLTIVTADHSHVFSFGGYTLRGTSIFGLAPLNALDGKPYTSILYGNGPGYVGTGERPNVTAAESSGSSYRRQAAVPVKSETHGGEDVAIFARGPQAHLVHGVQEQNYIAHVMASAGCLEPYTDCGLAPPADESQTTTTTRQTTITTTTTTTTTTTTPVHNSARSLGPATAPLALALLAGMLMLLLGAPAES
Mitogen-activated protein kinase 10, sequence (P53779 whole entry): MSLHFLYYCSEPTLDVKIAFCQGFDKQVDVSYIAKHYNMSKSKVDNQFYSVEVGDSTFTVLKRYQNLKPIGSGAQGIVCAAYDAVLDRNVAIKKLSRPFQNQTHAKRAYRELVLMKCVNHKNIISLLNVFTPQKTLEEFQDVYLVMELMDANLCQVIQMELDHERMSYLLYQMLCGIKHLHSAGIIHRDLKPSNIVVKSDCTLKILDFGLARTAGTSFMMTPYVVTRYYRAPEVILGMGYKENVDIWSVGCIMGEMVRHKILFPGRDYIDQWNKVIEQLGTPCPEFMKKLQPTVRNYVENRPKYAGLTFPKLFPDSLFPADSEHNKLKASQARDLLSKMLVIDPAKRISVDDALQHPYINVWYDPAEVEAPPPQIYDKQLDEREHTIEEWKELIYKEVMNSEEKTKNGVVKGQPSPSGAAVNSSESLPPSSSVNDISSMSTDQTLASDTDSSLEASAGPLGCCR
Trypsin, sequence (P00761 whole entry): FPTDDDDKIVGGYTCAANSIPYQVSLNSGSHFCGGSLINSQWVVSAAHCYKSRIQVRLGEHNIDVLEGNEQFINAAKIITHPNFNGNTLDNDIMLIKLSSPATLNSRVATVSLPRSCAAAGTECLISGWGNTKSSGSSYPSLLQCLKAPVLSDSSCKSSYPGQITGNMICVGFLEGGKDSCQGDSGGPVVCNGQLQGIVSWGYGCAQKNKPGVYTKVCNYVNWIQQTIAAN
ATP-dependent molecular chaperone HSP82, sequence (C4YTQ8 whole entry): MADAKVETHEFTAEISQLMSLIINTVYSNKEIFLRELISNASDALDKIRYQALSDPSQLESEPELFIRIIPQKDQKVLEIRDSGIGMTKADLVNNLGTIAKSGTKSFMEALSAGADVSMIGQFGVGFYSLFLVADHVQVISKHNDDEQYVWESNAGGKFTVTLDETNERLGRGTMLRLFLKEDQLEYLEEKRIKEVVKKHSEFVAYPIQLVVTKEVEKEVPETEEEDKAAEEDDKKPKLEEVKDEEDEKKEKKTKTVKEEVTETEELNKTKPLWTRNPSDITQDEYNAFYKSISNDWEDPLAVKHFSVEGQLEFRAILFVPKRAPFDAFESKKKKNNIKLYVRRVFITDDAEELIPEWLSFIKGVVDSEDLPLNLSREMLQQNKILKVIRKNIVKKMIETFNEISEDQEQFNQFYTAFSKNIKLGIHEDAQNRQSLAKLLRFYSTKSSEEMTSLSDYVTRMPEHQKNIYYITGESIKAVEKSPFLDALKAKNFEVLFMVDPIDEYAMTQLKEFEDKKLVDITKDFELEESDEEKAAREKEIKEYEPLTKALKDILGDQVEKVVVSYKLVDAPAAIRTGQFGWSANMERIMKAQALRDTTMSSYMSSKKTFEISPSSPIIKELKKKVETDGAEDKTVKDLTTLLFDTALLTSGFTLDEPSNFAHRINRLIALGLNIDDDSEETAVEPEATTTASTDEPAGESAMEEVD

As a reminder, the EC50 is the concentration giving half of the maximal effect. For `CC(=O)c1cccc(CN2CCCC(CCC(=O)NCc3ccc(F)c(F)c3)C2)c1` (stereo not drawn), the EC50 in test [1] is 0.069 µM (active); in test [2], < 0.1 µM (active); in [3] it was > 195 µM (not active); in test [4], > 60 µM (not active); in test [5] it was 0.069 µM (active); in test [6] it was 0.07 µM (active).
For `CC(C)CC(=O)NC(=S)NNC(=O)c1ccc(NC(=O)C2CCCCC2)cc1`, the EC50 was 43.7 µM (active) in [7]; 0.517 µM (active) in test [8]; > 150 µM (not active) in test [9]; 2.57 µM (active) in test [10]; 9.89 µM (active) in test [11]; 43.2 µM (active) in test [12]. Besides, the figures for the EC50 in test [13], in test [14] and in test [15] were 18.7 µM (active), 58.1 µM (active) and 70.2 µM (active), respectively.
One may read the AC50 as the midpoint of the concentration-response curve, whichever way the signal moves. `O=C(Oc1c(Cl)cc(Cl)c2cccnc12)c1cccs1`: the EC50 is 27.3 µM (active) in test [7]; 1.47 µM (active) in [8]; 0.122 µM (active) in test [10]; 2.41 µM (active) in test [2]; > 180 µM (inactive) in test [17]; 9.43 µM (active) in [4]. The EC50 in test [11] is 1.27 µM (active); in test [19] it was > 285 µM (inactive); in test [22], 16 µM (active). Moreover, the CC50 in test [16] is 17.3 µM (active); in test [21] it was 16.5 µM (active). Also, the AC50 in test [18] is 3.28 µM (active); in test [20], 8.83 µM (active).
Usually IC50 stands for the concentration at which inhibition is half-maximal. Lower therefore signals higher potency. For `O=C1c2ccccc2NC2=NCCCCN12`, the results for the IC50 in [23] and in test [24] were > 50 µM (not active) and 39.5 µM (not active), respectively. The AC50 in test [25] is 11.4 µM (active); in [26], 31.1 µM (active); in test [27], 3.9 µM (active).
